# Entries after “also recorded” stand apart in the source; their conditions may differ. Read-outs that look alike come from different tables or passages of the source.
# Assays:
# humans = conditions: known effects in humans; cited from earlier work
# zebrafish embryos [1] = experiment: Automated angiogenesis assay (ISV formation), Flk1:copGFP embryos treated at 22-26 hpf, read at 48 hpf; assay type: in vivo; conditions: for Angiog. inhibition: presence or absence of an anti-angiogenic effect, 0.01-100 µM; for Efective concentration (minimum concentration that showed an effect): given when IC50 could not be calculated; for Anti-angiogenic phenotype (ISVs / DLAV): treated at 24 hpf, checked at 48 hpf; for IC50: manually quantified
# Excerpt: In the angiogenesis assay, the fluorescent images taken were processed using AxioVision 4.6.3 and a macro was developed to quantify an indirect measure of the area of the ISVs. […] However, we usually include a manual counting to offer a more detailed measurement of effect.
# In the automatic analysis of angiogenesis, it is first necessary to perform a sequence of automated filtering functions on the image to extract information, define the region of interest (ROI), that in this case is the part of the tail containing the ISVs, and allow the measurement of the embryo length. Recovering a previous image, new filtering functions are applied to the ROI. A gradient image containing the ISVs, the DLAV (Dorsal Longitudinal Anastomotic Vessel), the PCV and the DA is created. Next, fluorescent areas that should not be quantified are discarded. Finally, only the areas comprised between the ISVs, the DLAV and the PCV or the DA are measured (Figure 4). In that way, when the vessels are incomplete or the DLAV is not present, an enclosed area is not present and therefore not measured.
# The means obtained from the treated embryos were compared with the control mean. When statistically significant differences were detected a deeper analysis was done manually. In this case the parameters quantified were:
# • The total number of ISVs present in the trunk of the embryos (from where the largest bulge of the yolk ends to the end of the tail). • Number of complete ISVs (reached the dorsal part of the embryo and formed the DLAV).
# A curve of six concentrations (0.01, 0.1, 1, 10, 30 and 100 µM) was performed for all of them. […] IC50 was calculated when a clear dose-dependent anti-angiogenesis effect was detected. Otherwise, the minimum dose at which the inhibition of angiogenesis was observed is shown (Table 4).
# At this time, chorions were removed with protease from Streptomyces griseus (Sigma-Aldrich) (1.5 mg/ml for 6 minutes) and the embryos were sorted and dispensed 1 per well in a 96 well assay plate. Each experimental condition was tested in a row with ten embryos. Embryos were dispensed in an average final volume of 90 µl of E3 media. 90 µl of the test items (DMSO and positive control KRN633 included) previously diluted 100 times were dispensed into each well of the assay plate containing the embryos to get the final volume of 180 µl and the desired final concentration.
# The microscope scanned the wells by columns and a bright field image and a fluorescent image (2.5×magnification) were acquired per well. Then, the image analysis was performed and the result file generated.
# Statistical analysis and graphical representation of the data were performed using SSPS (Statistical Package for the Social Sciences) software and Prism (Graph Pad Software) for IC50 calculations (non linear regression, sigmoidal dose-response with variable slope). […] In the angiogenesis assay, for comparisons between two groups, two-tailed t-test was used assuming unequal variances. For comparisons between more than two groups one-way analysis of variance followed by Dunnett’s post-test was applied to compare each data point with vehicle control.
# zebrafish embryos [2] = experiment: Embryo analysis at 72 hpf (blood circulation and ISVs development); assay type: in vivo
# Procedure: Embryos from the Flk1:copGFP line were treated with the indicated compounds at 22–23 hpf in 500 µl of E3 in p24 well plates (5 embryos per well). After 48 hours of treatment embryos were anesthetized with 10 µl Tricaine (final concentration 0.02%) and analyzed for the presence of blood circulation and ISVs development using a Leica M205 FA stereoscope equipped with a Hamamatsu C10600 camera.
# 48 hpf zebrafish embryos = conditions: for Cardiotoxic effect in zebrafish: blind screened between 1 and 200 µM, predominant effect
# Excerpt: The image analysis program for the Cardiotoxicity assay was based on the processing of the videos to obtain a periodic signal of the cardiac motion automatically and independent to the embryo position.
# The detection of the heart beat frequency was based on the frequency spectrum analysis of the Euclidean Distance (ED) signal (built as the ED between the frames of the video referred to a reference frame calculated with the mean values of intensity for homogeneous zones). Obtaining the periodogram using the Discrete Fourier Transform (DFT), and modifying it to avoid undesired effects, the heart beat frequency was given by its first significant frequency (Figure 3 A).
# For embryos with arrhythmia (A), the sinusoidal course of the ED signal was disrupted due to the irregular beating of the heart, i.e. the different beating frequency of each chamber. The classification of the arrhythmia cases was therefore based on the number of significant frequencies detected in the DFT of the ED signal (Figure 3 B).
# Embryos at 48 hpf were automatically dispensed in a 96 well plate discarding exterior columns and rows and volume was leveled to 50µl with E3. Compounds were prepared 200 times concentrated in DMSO. A 1∶100 dilution was automatically made from the stock and 50 µl were added to each embryo to reach the final concentration. […] Embryos that moved during video recording were discarded. […] One video per embryo from a minimum of 10 embryos in each treated group were necessary for statistical analysis.
# [3] = read-out: IC50 C.V. (complete number of vessels)
# [4] = read-out: IC50 T.V. (total number of vessels)
Structure (SMILES),Cardiac effect in humans (humans),Angiog. inhibition (zebrafish embryos [1]),further results
CCN(CC)CC(=O)Nc1c(C)cccc1C [Lidocaine],Bradycardia,,
CC(=O)N[C@@H](CS)C(=O)O [N-Acetyl-L-cysteine],,No,
CS(=O)(=O)Nc1ccc([N+](=O)[O-])cc1OC1CCCCC1 [NS-398],,Yes,Lethality (zebrafish embryos [2]; treatment to 72 hpf at the 48 hpf doses which inhibited angiogenesis): lethal; Efective concentration (minimum concentration that showed an effect) (zebrafish embryos [1]): 30 µM; Anti-angiogenic phenotype (ISVs / DLAV) (zebrafish embryos [1]): moderate effect that did not increase with higher doses
Cn1c(=O)n(-c2ccc(C(C)(C)C#N)cc2)c2c3cc(-c4cnc5ccccc5c4)ccc3ncc21 [NVP-BEZ235],,Yes,Blood circulation (zebrafish embryos [2]; 72 hpf): impaired blood circulation; ISVs appearance (zebrafish embryos [2]; 72 hpf): thinner ISVs that were disrupted in some cases; Efective concentration (minimum concentration that showed an effect) (zebrafish embryos [1]): 10 µM; Anti-angiogenic phenotype (ISVs / DLAV) (zebrafish embryos [1]): moderate effect that did not increase with higher doses
CN1CCC[C@H]1c1cccnc1 [Nicotine],Bradycardia,,Cardiotoxic effect in zebrafish (48 hpf zebrafish embryos): Bradycardia
CCOC(=O)C1=C(C)NC(C)=C(C(=O)OC)C1c1cccc([N+](=O)[O-])c1 (centres unmarked) [Nitrendipine],Cardiac arrest,,
Nc1nc(OCc2ccccc2)c2nc[nH]c2n1 [O6-benzylguanine],,No,
COc1cc(OC)cc(-c2cc3cnc(N)nc3nc2NC(=O)NC(C)(C)C)c1 [PD166866],,Yes,IC50 (zebrafish embryos [1]; [3]): 16 µM; IC50 (zebrafish embryos [1]; [4]): 43.9 µM; Anti-angiogenic phenotype (ISVs / DLAV) (zebrafish embryos [1]): the formation of ISVs was perturbed with defective or total absence of sprouting; also recorded: strong angiogenesis inhibition
COc1cc2nccc(Oc3ccc(NC(=S)NC(=O)c4ccccc4C)cc3)c2cc1OC [PDGFR tyr kin inhibitor V],,Yes,IC50 (zebrafish embryos [1]; [3]): 0.14 µM; IC50 (zebrafish embryos [1]; [4]): 0.19 µM; Anti-angiogenic phenotype (ISVs / DLAV) (zebrafish embryos [1]; listed as PDGFR tyrosine kinase inhibitor): the formation of ISVs was perturbed with defective or total absence of sprouting; Anti-angiogenic phenotype (ISVs / DLAV) (zebrafish embryos [1]; listed as PDGFR tyrosine kinase inhibitor V): strong angiogenesis inhibition
CC[C@@H]1C(=O)OC[C@@H]1Cc1cncn1C [Pilocarpine],No effect,,
O=c1[nH]c2ccccc2n1C1CCN(CCCC(c2ccc(F)cc2)c2ccc(F)cc2)CC1 [Pimozide],QT-prolong.,,
Cc1nc2n(c(=O)c1CCN1CCC(c3noc4cc(F)ccc34)CC1)CCCC2 [Risperidone],QT-prolong.,,
N#Cc1cc2c(OCC(O)CN3CCN(C(c4ccccc4)c4ccccc4)CC3)cccc2[nH]1 (centres unmarked) [SDZ-201106],QT-prolong.,,Cardiotoxic effect in zebrafish (48 hpf zebrafish embryos): 2∶1 arrhythmia and type 2∶1 arrhythmias and Arrhythmia 2∶1
O=C1NCCN1CCN1CCC(c2cn(-c3ccc(F)cc3)c3ccc(Cl)cc23)CC1 [Sertindol],QT-prolong.,,
CC(C)(C)c1ccc(C(O)CCCN2CCC(C(O)(c3ccccc3)c3ccccc3)CC2)cc1 (centres unmarked) [Terfenadine],,,"Concentration at which detected as potential QT-prolongation inducer (48 hpf zebrafish embryos; tested at 0.1, 1, 5, 10, 20 and 50 µM): 5 µM"
CC(CC(c1ccccc1)c1ccccc1)NC(C)(C)C (centres unmarked) [Terodiline],QT-prolong.,,Cardiotoxic effect in zebrafish (48 hpf zebrafish embryos): Arrhythmia 2∶1
C[C@]12CC[C@H]3[C@@H](CCC4=CC(=O)CC[C@@]43C)[C@@H]1CC[C@@H]2O [Testosterone],Bradycardia,,Cardiotoxic effect in zebrafish (48 hpf zebrafish embryos): Bradycardia
COc1ccc2cc(-c3nc(-c4ccc([S+](C)[O-])cc4)[nH]c3-c3ccncc3)ccc2c1 (centres unmarked) [Tie2 Kinase inhibitor],,No,Angiog. inhibition (zebrafish embryos [1]; listed as Tie-2 kinase inhibitor): not detected
CC(C)(C)NC[C@H](O)COc1nsnc1N1CCOCC1 [Timolol],Bradycardia,,
N#C/C(=C\c1ccc(O)c(O)c1)C(=O)NCc1ccccc1 [Tyrphostin AG490],,No,
"COc1cc2c(Nc3ccc(Br)cc3F)ncnc2cc1OCC1CCN(C)CC1 [ZD6474 (Vandetanib), Vandetanib]",,Yes,Efective concentration (minimum concentration that showed an effect) (zebrafish embryos [1]): 100 µM; Anti-angiogenic phenotype (ISVs / DLAV) (zebrafish embryos [1]): the formation of ISVs was perturbed with defective or total absence of sprouting
O=C1Cc2cc(CCN3CCN(c4nsc5ccccc45)CC3)c(Cl)cc2N1 [Ziprasidone],QT-prolong.,,
N.N.[Cl][Pt][Cl] [cis-Diammineplatinum(II) dichloride],,No,
